Experimental data: article PMC9926234, “Iterative computational design and crystallographic screening identifies potent inhibitors targeting the Nsp3 macrodomain of SARS-CoV-2” (Proceedings of the National Academy of Sciences of the …, 2023)
Like-named read-outs stand apart in the source and are kept apart here.

Columns and labels:
[1] = tested on: P-glycoprotein (human MDR1); test: in vitro; details: dog; for Papp: MDCK-MDR1, pH 7.4, permeability, MDR1-MDCKII
Procedure: Permeability of compounds was assessed using canine MDR1 knockout and human MDR1 knockin MDCKII cells (MDR1-MDCKII) (Sigma-Aldrich, MTOX1303) in confluent monolayers expressing P-glycoprotein (P-gp) at Enamine biological services Bienta LTD (Kyiv, Ukraine).
Canine MDR1 knockout, human MDR1 knockin MDCKII cell (MDR1-MDCKII) (Sigma-Aldrich,
MTOX1303) suspension (400 μl) was added to each well of high throughput screening multiwell
insert system plates. Test compounds were prepared as 20 mM DMSO stocks. The test compound
(300 µl) was dissolved in transport buffer (9.5 g/l Hanks’ balanced salt solution and 0.35 g/l NaHCO3
wells whereas 1000 µl of transport buffer was added to transport analysis plate wells in order to
determine apical (A) to basolateral (B) transport. Basolateral to apical transport was measured by
adding 1000 µl of the test compound solution into the transport analysis plate wells whereas 300
µl of buffer was used to fill the filter plate wells.
were taken from the donor and receiver compartments for LC-MS/MS analysis. Samples were
mixed with acetonitrile followed by protein sedimentation by centrifugation at 1000 rpm for 10 min.
HPLC coupled with tandem mass spectroscopy was performed using the Shimadzu Prominence
HPLC system coupled with the API 5000 (PE Sciex) spectrometer. Both the positive and negative
ion modes of the TurboIonSpray ion source were used. The apparent permeability (Papp) was
computed using the equation 1, where VA is the volume of transport buffer in acceptor wel, Area is
the surface area of the insert, Time is the assay time, [drug]acc is the peak area of test compound
in acceptor well, and [drug]initial,d is the initial amount of the test compound in a donor well.

TARG1 = target: T1, TARG1 (Homo sapiens, UniProt Q9Y530); test: adapted HTRF-based peptide displacement assay (off-target); format: binding
T1 construct: Targ1_HTRF; HTRF assay; pET22b(+); His6, TEV; 1-153; made in house
T1 sequence (Q9Y530 with tags, fused parts or gaps): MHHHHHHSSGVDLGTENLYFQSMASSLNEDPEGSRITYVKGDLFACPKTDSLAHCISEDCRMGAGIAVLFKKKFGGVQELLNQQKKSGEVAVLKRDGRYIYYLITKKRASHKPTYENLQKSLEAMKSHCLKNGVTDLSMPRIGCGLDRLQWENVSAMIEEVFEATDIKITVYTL

SARS-CoV-2 NSP3 Mac1 [2] = target: T2, SARS-CoV-2 NSP3 Mac1 (Severe acute respiratory syndrome coronavirus 2, UniProt P0DTD1); format: binding; details: for 1-BDC (PanDDA): 1 minus background density correction; for 1-BDC (PanDDA) / Refined occupancy: crystal soaking of Mac1; for 1-BDC / PanDDA hit? / Modeled?: crystal soak, Compound_concentration 100 mM; for Refined occupancy: ligand occupancy after refinement (phenix.refine)
SARS-CoV-2 NSP3 Mac1 [3] = test: Overall hit call (binding in crystallographic soaking or the HTRF-based binding assay)
Source text: Supplement pnas.2212931120.sd01.xlsx, sheet "Compound Summary" | column: HIT*

SARS-CoV-2 NSP3 Mac1 [4] = target: T2, SARS-CoV-2 NSP3 Mac1; test: biochemical; format: binding
SARS-CoV-2 NSP3 Mac1 [5] = target: T2, SARS-CoV-2 NSP3 Mac1; parameters: contains a conserved macrodomain enzyme (Mac1); Differential scanning fluorimetry of Mac1, maximum thermal upshift; details: maximum shift over tested concentrations; binder
MacroD2 = target: T3, MacroD2 (Homo sapiens, UniProt A1Z1Q3); test: adapted HTRF-based peptide displacement assay (off-target); format: binding
T3 construct: MacroD2_HTRF; HTRF assay; pET22b(+); His6, TEV, Avi; made in house
T3 sequence (A1Z1Q3 with tags, fused parts or gaps): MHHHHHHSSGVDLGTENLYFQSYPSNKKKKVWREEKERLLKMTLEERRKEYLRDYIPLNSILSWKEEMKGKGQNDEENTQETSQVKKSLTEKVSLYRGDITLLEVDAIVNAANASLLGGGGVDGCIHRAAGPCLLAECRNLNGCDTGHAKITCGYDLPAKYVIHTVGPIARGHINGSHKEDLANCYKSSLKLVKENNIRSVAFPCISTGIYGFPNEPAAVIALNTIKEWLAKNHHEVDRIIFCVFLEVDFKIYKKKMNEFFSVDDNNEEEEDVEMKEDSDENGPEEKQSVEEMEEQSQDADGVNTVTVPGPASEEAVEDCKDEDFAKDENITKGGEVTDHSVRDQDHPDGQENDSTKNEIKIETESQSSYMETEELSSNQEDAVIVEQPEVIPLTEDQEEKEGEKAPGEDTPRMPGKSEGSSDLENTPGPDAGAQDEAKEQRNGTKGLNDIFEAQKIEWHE

O=C(O)[C@H]1CCCC[C@H]1Nc1ncnc2[nH]c3cc(F)ccc3c12 [LRH-0021]
Papp ([1]; apical to basal): 12 ×10⁻⁶ cm/s | Papp ([1]; basal to apical): 9.1 ×10⁻⁶ cm/s | binding / activity against TARG1 (TARG1; compound at 160 µM): showed binding | 1-BDC (PanDDA) (SARS-CoV-2 NSP3 Mac1 [2]; PanDDA event map): 0.12 | 1-BDC (SARS-CoV-2 NSP3 Mac1 [2]; PanDDA event map, Echo_dispense_volume 40 nl): 0.05 | 1-BDC (SARS-CoV-2 NSP3 Mac1 [2]; PanDDA event map, Echo_dispense_volume 80 nl): 0.12 | PanDDA hit? (SARS-CoV-2 NSP3 Mac1 [2]; Echo_dispense_volume 40 nl, PanDDA run (background map) dmso_34, nohits_35 or nohits_62): TRUE | PanDDA hit? (SARS-CoV-2 NSP3 Mac1 [2]; Echo_dispense_volume 80 nl, PanDDA run dmso_34): TRUE | Modeled? (SARS-CoV-2 NSP3 Mac1 [2]; ligand modeled, Echo_dispense_volume 80 nl): TRUE | Refined occupancy (SARS-CoV-2 NSP3 Mac1 [2]): 24 | HIT* (SARS-CoV-2 NSP3 Mac1 [3]): Y | binding to Mac1 in the HTRF assay, result in words (SARS-CoV-2 NSP3 Mac1 [4]): equipotent to LRH-0003 | IC50 (SARS-CoV-2 NSP3 Mac1 [4]; IC50 [µM], HTRF ADPr-conjugated peptide displacement): 1.7 µM | Ki (SARS-CoV-2 NSP3 Mac1 [4]; Ki*** [µM]): 1.5 µM

c1csc(CC2CCN(c3ncnc4[nH]ccc34)C2)n1 (stereo not shown) [Z6891, ZINC000897286891]
DSF max dTma (SARS-CoV-2 NSP3 Mac1 [5]): 0.15 °C

OCc1cn(C2CCCN(c3ncnc4[nH]ccc34)C2)nn1 (stereo not shown) [Z7864, ZINC000292637864]
DSF max dTma (SARS-CoV-2 NSP3 Mac1 [5]): 0.32 °C

O=C(Nc1ccc(C(=O)NC2c3cccc(O)c3CC2C(=O)O)cc1)NC1CC1 (stereo not shown) [Z8539]
Papp A→B at 90 min, 10 µM ([1]; MDCK-MDR1, pH 7.4): 1.1 ± 0.1 ×10⁻⁶ cm/s | Papp B→A at 90 min, 10 µM ([1]; MDCK-MDR1, pH 7.4): 0.5 ×10⁻⁶ cm/s | Papp at 90 min, 10 µM ([1]; MDCK-MDR1, pH 7.4, cell permeability, MDCK cells, direction not given): 1.1 ×10⁻⁶ cm/s

Cc1nnc2n1CC(C(=O)O)N(C(=O)c1ccc(NC(=O)NC3CC3)cc1)C2 (stereo not shown) [Z8539_0037, 8539_0037]
DSF max dTma (SARS-CoV-2 NSP3 Mac1 [5]): 2.36 °C

NC(=O)Nc1ccc(C(=O)NC2c3cccc(O)c3CC2C(=O)O)cc1 (stereo not shown) [Z8539_0041, 8539_0041]
DSF max dTma (SARS-CoV-2 NSP3 Mac1 [5]): 6 °C

O=C(Nc1ccc(C(=O)NC2c3cccc(O)c3CC2C(=O)O)c(O)c1)NC1CC1 (stereo not shown) [Z8539_0072]
displacement of the ADPr-conjugated peptide (off-target activity) (MacroD2; compound at 50 µM): did not show any off-target activity | displacement of the ADPr-conjugated peptide (off-target activity) (MacroD2; compound at 1 mM): did not show any off-target activity | displacement of the ADPr-conjugated peptide (off-target activity) (TARG1; compound at 50 µM): did not show any off-target activity | displacement of the ADPr-conjugated peptide (off-target activity) (TARG1; compound at 1 mM): did not show any off-target activity | 1-BDC (SARS-CoV-2 NSP3 Mac1 [2]; PanDDA event map 1-BDC, PanDDA run dmso_34 or nohits_35 per dataset): 0.24 | 1-BDC (PanDDA) (SARS-CoV-2 NSP3 Mac1 [2]; PanDDA event map): 0.24 | PanDDA hit? (SARS-CoV-2 NSP3 Mac1 [2]; Echo dispense 40 nl, PanDDA run dmso_34 or nohits_35 per dataset): TRUE | Modeled? (SARS-CoV-2 NSP3 Mac1 [2]; ligand modeled in this dataset): TRUE | Refined occupancy (SARS-CoV-2 NSP3 Mac1 [2]): 48 | HIT* (SARS-CoV-2 NSP3 Mac1 [2]; true hit = binding in crystallographic soaking or the HTRF-based binding assay): Y | IC50 (SARS-CoV-2 NSP3 Mac1 [4]; HTRF, Mac1, read-out: affinity): 0.43 µM | IC50 (SARS-CoV-2 NSP3 Mac1 [4]; IC50, HTRF ADPr-peptide displacement from SARS-CoV-2 Mac1): 0.4 µM | Ki (SARS-CoV-2 NSP3 Mac1 [4]; Ki estimation from HTRF-derived IC50, Cheng-Prusoff, peptide 400nM, Kd 2.68µM, read-out: Ki***): 0.3 µM | improvement compared to the best starting fragment (SARS-CoV-2 NSP3 Mac1 [4]; affinity, HTRF): > 400 fold

O=C(Nc1ccc(C(=O)N[C@H]2c3cccc(O)c3C[C@H]2C(=O)O)cc1)NC1CC1 [Z8601]
displacement of the ADPr-conjugated peptide (off-target activity) (MacroD2; compound at 50 µM): no displacement | displacement of the ADPr-conjugated peptide (off-target activity) (MacroD2; compound at 1 mM): approximately 50% | displacement of the ADPr-conjugated peptide (off-target activity) (TARG1; compound at 50 µM): no displacement | displacement of the ADPr-conjugated peptide (off-target activity) (TARG1; compound at 1 mM): approximately 50%

O=C1NCCCC1Nc1ncnc(-c2ccccc2)n1 (stereo not shown) [Z9020, ZINC000884519020]
DSF max dTma (SARS-CoV-2 NSP3 Mac1 [5]): 1.01 °C
